Values quoted from earlier work, collected in patent publication US20010053381A1, “System and method for treating kidney diseases in diabetic and non-diabetic patients” (priority 2000, published 2001).

Key:
[1] = tested on: patients with type 1 DM and diabetic nephropathy

In the case of insulin [CIIIT], the “progression of overt diabetic nephropathy” value ([1]; 37 months, type 1 DM patients) is listed as “arrest or appreciably reduce the progression”, the “Creatinine clearance at baseline” value ([1]; baseline, 31 patients with type 1 DM and diabetic nephropathy) is listed as 46.1 ± 3.0 mL/min and the “Creatinine clearance at the end of the observation period” value ([1]; end of observation period (37 months), 31 patients with type 1 DM and diabetic nephropathy) is listed as 46.0 ± 3.9 mL/min. For the same substance, the “hemoglobin Alc levels, after study period” value ([1]; value after decline during the study period, P=0.0062) was 7.6±0.3%, the “hemoglobin Alc levels, start of study period” value ([1]; value before decline, patients with type 1 DM and diabetic nephropathy) was 8.6±0.6% and the blood pressure control (patients with type 1 DM) was “improve blood pressure control substantially”. The “reduction of antihypertensive medication requirements” value (patients with type 1 DM) was 46%.
